Assay results published in ChEMBL document CHEMBL3244018, “Synthesis and some pharmacological properties (4-beta-(2-thienyl)-L-alanine)oxytocin” (J Med Chem, 1978).
Calls of active or inactive are those of the source. No cut-off for these calls is given here. Positions of bridges follow the written chain, without caps; N, C: chain ends. Non-standard residues stand in square brackets, D forms with d. Residues, ends and D or L forms follow the SMILES beside them. 2Thi = N[C@@H](Cc1cccs1)C(=O)O

Tests used:
[1] = Inhibition of oxytocin receptor in conscious chicken assessed as inhibition of oxytocin-induced vasodepressor response; parameters: species or system Gallus gallus
Rattus norvegicus [2] = organism: Rattus norvegicus; experiment: Antidiuretic activity in rat at 0.1 mg; type: functional, Urine
Rattus norvegicus [3] = organism: Rattus norvegicus; experiment: Effect on pressor response in rat at 0.1 mg; type: functional
[4] = biological target: T1, Oxytocin receptor (Rattus norvegicus) (UniProt P70536); experiment: Binding affinity to rat oxytocin receptor
T1 sequence (whole entry): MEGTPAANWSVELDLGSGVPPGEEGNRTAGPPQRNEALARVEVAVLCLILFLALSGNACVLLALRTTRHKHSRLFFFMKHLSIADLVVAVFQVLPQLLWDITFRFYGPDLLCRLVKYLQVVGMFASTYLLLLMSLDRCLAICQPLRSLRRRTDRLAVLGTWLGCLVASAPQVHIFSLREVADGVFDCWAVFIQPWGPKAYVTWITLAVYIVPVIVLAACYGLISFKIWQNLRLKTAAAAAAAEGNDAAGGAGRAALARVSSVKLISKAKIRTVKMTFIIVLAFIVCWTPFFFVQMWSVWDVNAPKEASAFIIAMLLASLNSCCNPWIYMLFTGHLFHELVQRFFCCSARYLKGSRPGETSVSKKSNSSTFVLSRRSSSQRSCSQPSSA

[5] = biological target: T1, Oxytocin receptor (Rattus norvegicus); experiment: Intrinsic activity at rat oxytocin receptor relative to oxytocin
Rattus norvegicus [6] = organism: Rattus norvegicus; experiment: Uterotonic potency in rat; type: functional

With `CC[C@H](C)[C@@H]1NC(=O)[C@H](Cc2ccc(O)cc2)NC(=O)[C@@H](N)CSSC[C@@H](C(=O)N2CCC[C@H]2C(=O)N[C@@H](CC(C)C)C(=O)NCC(N)=O)NC(=O)[C@H](CC(N)=O)NC(=O)[C@H](Cc2cccs2)NC1=O` (H-CYI[2Thi]NCPLG-NH2; disulfide 1-6) the pA2 [1] was 7.44, the Activity (Rattus norvegicus [2]) was <0.05 U/mg and the Activity (Rattus norvegicus [3]) was <0.05 U/mg. For the same compound, the Activity [4] was “inactive”, the Intrinsic activity [5] was 64% and the Activity (Rattus norvegicus [6]) was 0.51 U/mg.
